# Measured values as given in article PMC8434491, “Targeting the Integrated Stress Response Kinase GCN2 to Modulate Retroviral Integration” (Molecules, 2021).
# Where a name gives a salt, the structure may show the parent alone. Read-outs that look alike come from different tables or passages of the source.
# Tests used:
# GCN2 = molecular target: T1, GCN2 (Homo sapiens, UniProt Q9P2K8); assay: In vitro phosphorylation assay: GCN2 activation (auto-phosphorylation); assay type: biochemical; settings: for decrease in GCN2 auto-phosphorylation: single dose of 100 µM, compared to DMSO
# T1 construct: expressed as a truncated version (192-1024) in fusion after a glutathione S-transferase tag; purchased SignalChem E12-11G
# T1 sequence (Q9P2K8 192-1024): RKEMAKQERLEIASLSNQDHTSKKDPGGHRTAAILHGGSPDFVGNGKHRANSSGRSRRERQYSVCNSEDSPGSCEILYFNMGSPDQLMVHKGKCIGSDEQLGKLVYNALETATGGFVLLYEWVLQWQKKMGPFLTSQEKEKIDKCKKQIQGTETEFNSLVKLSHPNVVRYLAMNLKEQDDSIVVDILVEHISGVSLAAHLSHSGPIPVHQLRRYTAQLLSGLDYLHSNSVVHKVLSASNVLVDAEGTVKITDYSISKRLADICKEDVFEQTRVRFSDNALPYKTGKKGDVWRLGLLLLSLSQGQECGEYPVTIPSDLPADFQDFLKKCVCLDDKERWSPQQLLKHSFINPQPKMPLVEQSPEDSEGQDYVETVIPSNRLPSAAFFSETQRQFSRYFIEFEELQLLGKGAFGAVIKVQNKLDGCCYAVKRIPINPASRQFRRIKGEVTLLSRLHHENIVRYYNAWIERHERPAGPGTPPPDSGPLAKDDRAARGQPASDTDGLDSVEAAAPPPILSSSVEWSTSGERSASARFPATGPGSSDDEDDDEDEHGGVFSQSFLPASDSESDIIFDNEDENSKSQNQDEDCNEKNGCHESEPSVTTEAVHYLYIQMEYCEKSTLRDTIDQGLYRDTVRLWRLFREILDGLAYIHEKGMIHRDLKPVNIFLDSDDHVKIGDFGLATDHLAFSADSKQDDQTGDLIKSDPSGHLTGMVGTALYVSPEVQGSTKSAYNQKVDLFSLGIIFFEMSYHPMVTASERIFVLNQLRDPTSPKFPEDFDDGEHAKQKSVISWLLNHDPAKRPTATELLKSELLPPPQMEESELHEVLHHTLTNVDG
# From the text: Enzymes. GCN2 was purchased from SignalChem (EIF2AK4, cat. #E12-11G). This human recombinant protein was expressed as a truncated version (192-1024) in fusion after a glutathione S-transferase tag (approximate molecular weight of 132 kDa). Recombinant full-length IN was expressed in E. coli BL21 pLys (IPTG induction) and purified on a nickel chelating column, as described. Integrity and purity were checked by direct Coomassie coloration of elution fractions on SDS-PAGE before dialysis to remove imidazole. Protein concentration was determined using a NanoDrop 2000 with the following parameters: molecular weight: 34 kDa, extinction coefficient ϵ = 50,460 mol^−1cm^−1L.
# (§1) In vitro phosphorylation assay. Phosphorylation of IN (700 nM) was carried out using 25 nM of GCN2 in a reaction buffer containing 10 mM Tris-HCl pH 7.5, 50 mM NaCl, 15 mM MgCl2, 7.5 mM MnCl2, 10 mM DTT, 0.005% Nonidet P-40, 100 µM ATP, 50 µCi/µL of [γ-^32P]-ATP (3000 Ci/mmole, Perkin Elmer). Reactions (20 µL) were stopped after a 60 min incubation at 30 °C by adding 10 µL of loading buffer [80 mM Tris-HCl pH 6.8, 100 mM DTT, 10% glycerol, 1% sodium dodecyl sulfate (SDS) and 0.05% bromophenol blue]. Samples were then loaded onto a 10% denaturating SDS-PAGE. After protein separation (120 V for 120 min) the gel was stained using Coomassie Brilliant Blue R-250. Autoradiography was performed using an imaging plate (Fujifilm, Tokyo, Japan) and images were obtained with a FLA-5000 Imaging System (Fujifilm).
# [1] = molecular target: T2, IN's phosphorylation catalyzed by GCN2 (Homo sapiens, UniProt Q9P2K8); assay: In vitro phosphorylation assay: phosphorylation of IN catalyzed by GCN2; assay type: biochemical, human GCN2 / HIV-1 IN; settings: for inhibition at 100 µM: read-out: decrease (inhibition) in IN phosphorylation; for concentration giving full inhibition of IN phosphorylation: serial dilutions from 300 µM to 137 nM
# T2 construct: expressed as a truncated version (192-1024) in fusion after a glutathione S-transferase tag; purchased SignalChem (GCN2); IN made in house in E. coli BL21 pLys E12-11G; host or cells: E. coli BL21 pLys (IN)
# T2 sequence (Q9P2K8 192-1024): T1 sequence (Q9P2K8 192-1024)
# Protocol: Enzymes. GCN2 was purchased from SignalChem (EIF2AK4, cat. #E12-11G). […] Recombinant full-length IN was expressed in E. coli BL21 pLys (IPTG induction) and purified on a nickel chelating column, as described. Integrity and purity were checked by direct Coomassie coloration of elution fractions on SDS-PAGE before dialysis to remove imidazole.
# as §1, with “Phosphorylation of IN (700 nM) was carried out using 25 nM of GCN2 in a reaction buffer containing 10 mM Tris-HCl pH 7.5, 50 mM NaCl, 15 mM MgCl2, 7.5 mM MnCl2, 10 mM DTT, 0.005% Nonidet P-40, 100 µM ATP, 50 µCi/µL of [γ-^32P]-ATP (3000 Ci/mmole, Perkin Elmer).” left out
# IN–GCN2 interaction = molecular target: T3, IN–GCN2 interaction (UniProt P04585+Q9P2K8); assay: IN–GCN2 interaction assay (AlphaLISA); assay type: binding, HIV-1 IN / human GCN2; settings: for effect on the IN–GCN2 interaction: A-92: over a wide concentration range, MK-2048: nanomolar or low micromolar ranges
# T3 construct: expressed as a truncated version (192-1024) in fusion after a glutathione S-transferase tag; Recombinant full-length IN was expressed in E. coli BL21 pLys; purchased SignalChem (GCN2); IN made in house in E. coli BL21 pLys E12-11G; host or cells: E. coli BL21 pLys (IN)
# From the text: We developed an in vitro plate-based assay to monitor the interaction between GCN2 and IN using the AlphaLISA technology (Figure 1). Taking advantage of the tags present on each recombinant protein (6xHis for IN prepared “in-house”, and GST for GCN2 commercially available), we used specific beads that fluoresce only when they are in close proximity (<200 nm). The signal obtained (light count) is directly proportional to the binding of IN to GCN2 (homogenous solution assay at steady state).
# IN–GCN2 interaction assay. Protein–protein interactions were monitored using the AlphaLISA technology (Perkin Elmer) taking advantage of the GST and 6xHis tags of GCN2 and IN, respectively. Accordingly, AlphaScreen GSH Donor beads and AlphaLISA Nickel Acceptor beads were used (Perkin Elmer). Reactions were carried out at room temperature by incubating GCN2 with drugs or DMSO for 5 min before addition of AlphaLISA Nickel Acceptor beads. After 5 min, IN was added to the reaction mixture and incubated for 20 min before adding the AlphaScreen GSH Donor beads. This interaction assay was performed in conditions similar to the in vitro phosphorylation assay, already described, using 25 nM GCN2 and 700 nM (except indicated otherwise) in a reaction buffer containing 50 mM Tris-HCl pH 7.5, 40 mM NaCl, 1 mM dithiothreitol (DTT), 0.05% Tween 20, 0.1% bovine serum albumin (BSA), 10 µg/mL of each donor and acceptor beads. Alpha signal was measured using an EnSight plate reader (Perkin Elmer) 120 min after the addition of the latest component of the reaction (unless indicated otherwise).
# HIV-1 IN [2] = molecular target: T4, HIV-1 IN (Human immunodeficiency virus type 1 group M subtype B, UniProt P04585); assay: Integrase reaction, strand transfer (ST), gel-based; assay type: biochemical
# T4 construct: Recombinant full-length IN was expressed in E. coli BL21 pLys; 6xHis; made in house; host or cells: E. coli BL21 pLys
# Protocol: (§2) Oligonucleotides. Oligonucleotides were purchased from Integrated DNA Technologies, Inc. (Leuven, Belgium), purified on polyacrylamide gel through electro-elution and dissolve in water. 19T ([…]) and 21B ([…]) correspond to the cleaved and non-cleaved strands specifically recognized by HIV-1 IN. Radiolabeling of 19T at the 5′-end was performed with [γ-^32P] ATP (Perkin-Elmer, Villebon-sur-Yvette, France) using T4 polynucleotide kinase (Promega, Charbonnières-les-Bains, France), according to the manufacturers’ instructions. Unincorporated isotopes were removed using illustra microspin G-25 Columns (Cytiva life sciences, Amersham, Little Chalfont, United Kingdom). DNA duplexes were annealed using an equimolar ratio of the complementary strand 21B, heating to 95 °C, and slow cooling to room temperature.
# Integrase reactions. IN reactions were carried out by adding molecules or an equivalent volume of 100% DMSO (dimethyl sulfoxide, used as the drug solvent) to a mixture of 20 nM duplex DNA (19T/21B) and 400 nM IN in 50 mM MOPS pH 7.2, 7.5 mM MgCl2, and 14 mM 2-mercaptoethanol. Reactions were performed at 37 °C for 1 h and quenched by addition of an equal volume (10 µL) of loading buffer [formamide containing 1% SDS (sodium dodecyl sulfate), 0.25% bromophenol blue, and xylene cyanol]. Reaction products were separated in 16% polyacrylamide denaturing sequencing gels. Dried gels were visualized using a FLA-5000 imaging system (Fujifilm). Densitometric analyses were performed using the ImageQuant 5.1 software (GE Healthcare, Chicago, IL, USA) and data analyzed using Prism 6.05 software (GraphPad, San Diego, CA, USA).
# HIV-1 IN [3] = molecular target: T4, HIV-1 IN; assay: Integrase reaction, 3'-processing (3'-P), gel-based; assay type: biochemical; settings: gel-based assay
# Protocol: as §2
# Integrase reactions. IN reactions were carried out by adding molecules or an equivalent volume of 100% DMSO (dimethyl sulfoxide, used as the drug solvent) to a mixture of 20 nM duplex DNA (19T/21B) and 400 nM IN in 50 mM MOPS pH 7.2, 7.5 mM MgCl2, and 14 mM 2-mercaptoethanol. […] Densitometric analyses were performed using the ImageQuant 5.1 software (GE Healthcare, Chicago, IL, USA) and data analyzed using Prism 6.05 software (GraphPad, San Diego, CA, USA).
# [4] = pilot screen, single dose of 100 µM
# [5] = pilot screen, single dose of 100 µM, read-out: inhibition of the IN–GCN2 interaction signal
# [6] = single dose of 100 µM, compared to DMSO
# [7] = 100 µM, dose-response experiment
compound,measurement,setting,value
"Cc1ccc(C(=O)Nc2ccc(CN3CCN(C)CC3)c(C(F)(F)F)c2)cc1C#Cc1cnc2cccnn12 [NSC758487, Ponatinib]",decrease in GCN2 auto-phosphorylation,GCN2,around 35%
same,inhibition at 100 µM,[1],> 80%
same,concentration giving full inhibition of IN phosphorylation,[1],without reaching full inhibition
"CCc1c2c(nc3ccc(OC(=O)N4CCC(N5CCCCC5)CC4)cc13)-c1cc3c(c(=O)n1C2)COC(=O)[C@]3(O)CC [irinotecan, Irinotecan hydrochloride]",inhibition of the IN–GCN2 interaction signal,IN–GCN2 interaction; [4],no effect
"CC1(C)CCC(CN2CCN(c3ccc(C(=O)NS(=O)(=O)c4ccc(NCC5CCOCC5)c([N+](=O)[O-])c4)c(Oc4cnc5[nH]ccc5c4)c3)CC2)=C(c2ccc(Cl)cc2)C1 [NSC766270, Venetoclax]",inhibition at 100 µM,IN–GCN2 interaction; [5],93.6%
same,decrease in GCN2 auto-phosphorylation,GCN2,no impact
same,decrease (inhibition) in IN phosphorylation,[1]; [6],no impact
"CNCc1ccc(-c2[nH]c3cc(F)cc4c3c2CCNC4=O)cc1 [NSC756644, Rucaparib phosphate]",concentration giving full inhibition of GCN2 auto-phosphorylation,GCN2; serial dilutions from 300 µM to 137 nM,300 µM
same,decrease in GCN2 auto-phosphorylation,GCN2,~80%
same,concentration giving full inhibition of IN phosphorylation,[1],300 µM
same,decrease (inhibition) in IN phosphorylation,[1]; [6],inhibited
"CC[C@@]1(O)C(=O)OCc2c1cc1n(c2=O)Cc2cc3c(CN(C)C)c(O)ccc3nc2-1 [topotecan, Topotecan hydrochloride]",inhibition of the IN–GCN2 interaction signal,IN–GCN2 interaction; [4],no effect
"C=CC(=O)Nc1cc(Nc2nccc(-c3cn(C)c4ccccc34)n2)c(OC)cc1N(C)CCN(C)C [NSC779217, Osimertinib]",inhibition at 100 µM,IN–GCN2 interaction; [5],83.5%
same,decrease in GCN2 auto-phosphorylation,GCN2,around 20%
same,inhibition at 100 µM,[1]; [6],~20%
"Cc1cn(-c2cc(NC(=O)c3ccc(C)c(Nc4nccc(-c5cccnc5)n4)c3)cc(C(F)(F)F)c2)cn1 [NSC747599, Nilotinib]",decrease in GCN2 auto-phosphorylation,GCN2,no effect
same,inhibition at 100 µM,[1]; [6],40%
c1nn(C2CCOCC2)cc1Nc1ncc2nnn(-c3ccc4cn[nH]c4c3)c2n1 [A-92],doses with a slight impact on IN–GCN2 interaction,IN–GCN2 interaction,above 333 µM
same,inhibition at 1000 µM,IN–GCN2 interaction; 1 mM,< 20%
same,effect on the IN–GCN2 interaction,IN–GCN2 interaction,did not affect
same,IC50,"GCN2; read-out: apparent IC50, GCN2's activation (autophosphorylation)",~200 nM
"Clc1ccc(C(c2ccccc2Cl)C(Cl)Cl)cc1 (stereo not shown) [NSC38721, Mitotane]",effect on IN strand transfer activity,"HIV-1 IN [2]; serial dilutions from 100 µM to 45.7 nM, only IN present",inactive
same,value (signal) at the highest dose in the dose-response experiment,IN–GCN2 interaction; [7],248.5%
same,increase in signal (IN–GCN2 interaction),"IN–GCN2 interaction; pilot screen, 100 µM, compared to the DMSO control",299.9%
same,inhibition at 100 µM,[1]; [6],~30%
"CC1=C(/C=C/C(C)=C/C=C/C(C)=C/C(=O)O)C(C)(C)CCC1 [NSC122758, Tretinoin]",value (signal) at the highest dose in the dose-response experiment,IN–GCN2 interaction; [7],10.5%
same,inhibition at 100 µM,"IN–GCN2 interaction; 100 µM, dose-response experiment, corresponding to the printed signal, read-out: inhibition at the highest dose in the dose-response experiment",89.5%
same,inhibition at 100 µM,IN–GCN2 interaction; [5],87.3%
same,decrease in GCN2 auto-phosphorylation,GCN2,no impact
same,decrease (inhibition) in IN phosphorylation,[1]; [6],no impact
CCN1C[C@@H](C)n2c(c(O)c3c(=O)n(Cc4ccc(F)c(Cl)c4)nc(C(=O)NC)c32)C1=O [MK-2048],IC50,"HIV-1 IN [2]; gel-based assay, read-out: apparent IC50, inhibition of ST",20 nM
same,effect on the IN–GCN2 interaction,IN–GCN2 interaction,did not affect
same,IC50,"IN–GCN2 interaction; read-out: apparent IC50, IN–GCN2 interaction",~100000 nM
same,IC50,HIV-1 IN [3],2000 nM
